From patent US20260166051A1, “COMPOUNDS AND METHODS FOR TREATING CANCER” (The Regents of the University of California, priority 2022, published 2026)
Entries after “also recorded” stand apart in the source; their conditions may differ. Like-named read-outs stand apart in the source and are kept apart here.

Experiments:
[1] = In vivo BBB penetration of compound 2; conditions: mice
[2] = tested on: patient-derived glioma cells; assay: Secondary screening: self-renewal in patient-derived glioma cells; format: cell-based, human; conditions: patient-derived glioma cells (GBM)
Experimental: (§1) Cells were seeded under serum-free conditions into untreated plates in DMEM/F12 media, supplemented with 10 ml/500 mL of B27 (Invitrogen), 0.145 U/ml recombinant insulin (Eli Lilly, Indiana), 0.68 U/mL heparin (Fresenius Kabi, Illinois), 20 ng/ml fibroblast growth factor 2 (bFGF, Sigma) and 20 ng/ml epidermal growth factor (EGF, Sigma). After 10 days in culture, spheres formed from singles cells were counted. Certain compounds tested in sphere-forming assay according to the present disclosure are shown below. Results are shown in FIGS. 6, 7, 8, 9-19, 26, 33-37.

HK-374 glioma stem cells = assay: Sphere-forming assay: self-renewal of HK-374 glioma stem cells; format: cell-based, human; conditions: n=3
Excerpt: FIG. 42. Inhibition of self-renewal of HK-374 glioma stem cells in the absence of radiation.
FIG. 43. Inhibition of self-renewal of HK-374 glioma stem cells in combination with 4 Gy.
Primary human glioma cell lines were established at UCLA as described (Hemmati et al., PNAS 2003; Characteristics of specific gliomasphere lines can be found in Laks et al., Neuro-Oncology 2016). Primary glioblastoma cells were propagated as gliomaspheres in serum-free conditions in T25 flasks in DMEM/F12, supplemented with B27, EGF, bFGF and heparin as described previously (Vlashi et al., Journal of the NCI, 2009, 101, 350-9). All cells were grown in a humidified atmosphere at 37° C. with 5% CO2. The unique identity of all patient-derived specimen was confirmed by DNA fingerprinting (Laragen, Culver City, CA). All lines were routinely tested for mycoplasma infection (MycoAlert, Lonza). […]
as §1, with “Certain compounds tested in sphere-forming assay according to the present disclosure are shown below. Results are shown in FIGS. 6, 7, 8, 9-19, 26, 33-37.” left out

HK374 cells = assay: In vivo treatment of HK374 tumors, then in vitro extreme limiting dilution assay; set-up: species or system NSG mice
Experimental: FIGS. 39A-D. FIG. 39A NSG mice were injected with HK374 cells. After 2 weeks post grafting, mice received a single dose of 10 Gy and 5 daily injections/week of MXC-017 or saline for 2 weeks. Tumors were harvested and an in vitro extreme limiting dilution assay was performed. […] FIG. 39D Elimination of GSCs was reflected by the complete loss of cells with self-renewing capacity.
(§2) After two weeks of treatment the tumors were harvested, processed into single cells and the number of glioma cells with sphere-forming capacity (glioma stem cells) was determined in a functional assay (extreme limiting dilution assay). […] (FIG. 40A).

normal tissue cell lines = assay: Toxicity in normal tissue cell lines (NIH3T3 fibroblasts, EOC20 microglia, human astrocytes, murine neural stem/progenitor cells); format: cell-based; conditions: alone or in combination with radiation
Excerpt: FIGS. 5A-D. Toxicity of the analogs MXC017, 079 and 021 in fibroblasts (NIH3T3, FIG. 5A), microglia cells (EOC20, FIG. 5B), human astrocytes (FIG. 5C) or murine neural stem/progenitor cells (FIG. 5D).
(§3) Compound 2 was identified in an unbiased phenotypic screen and MCX analogs were synthesized without knowledge of the actual molecular target. […] Western blotting confirmed inhibition of the downstream targets with downregulation of p-Erk, p-Akt and upregulation of cytosolic beta-catenin (FIG. 4).

[3] = Tolerability and body weight in mice; format: in vivo, NSG mice
[4] = Histology of major organs (kidneys, lung, spleen, heart, liver); format: in vivo, mice; conditions: 50 mg/kg, 2 weeks, 5 days on, 2 days off
[5] = tested on: non-stem glioblastoma cells; assay: Reprogramming assay (phenotype conversion, ZsGreen-cODC reporter, flow cytometry); format: cell-based, human; conditions: spontaneous and radiation-induced
Experimental: Primary glioblastoma cells were engineered to express a fusion protein of ZsGreen and the C-terminal degron of ornithine decarboxylase. This construct reports for lack of 26S proteasome activity and cells with low proteasome activity are enriched for cells with tumor-initiating properties. For reprogramming experiments, cells with low proteasome activity (ZsGreen-positive) were removed by FACS. ZsGreen-negative cells were treated and 5 days later the number of radiation-induced ZsGreen-positive cells was assessed by flow cytometry.

PDOX models of GBM = assay: Survival in PDOX models of GBM; format: in vivo, mice
[6] = tested on: Olig2-positive oligodendrocytes; assay: Immunofluorescent staining of brains of glioma bearing mice; format: in vivo; conditions: combined treatment with radiation and MXC-017
Excerpt: (§4) FIGS. 41A-B. Immunofluorescent staining of brains of glioma bearing mice using antibodies against Olig2 and Nestin. Combined treatment with radiation and MXC-017 eliminated Nestin-positive glioma stem cells in the tumors while not effecting the sensitive normal tissue cell population of Olig2-positive oligodendrocytes in the brain. Nuclei were counterstained.

[7] = tested on: Nestin-positive glioma stem cells; assay: as above; format: in vivo; conditions: combined treatment with radiation and MXC-017
Excerpt: as §4

p-AKT = assay: Western blotting of patient-derived glioblastoma cells; format: cell-based, human; conditions: Western blot
Excerpt: as §3

p-ERK = assay: as above; format: cell-based, human; conditions: Western blot
Excerpt: as §3

cytosolic beta-catenin = assay: as above; format: cell-based, human; conditions: Western blot
Excerpt: as §3

[8] = PK study, plasma and brain concentration by mass spectrometry; format: in vivo; conditions: mice; for Kp: mouse, brain/plasma, 50 mg/kg
Experimental: FIGS. 38A and 38B. PK studies for MXC-017 and MXC-079 Mice were treated with a single dose of the novel compounds at 50 mg/kg. Plasma and brain samples were taken at indicated time points and compound concentration measured by mass spectrometry.
as §2

[9] = alone or in combination with radiation
[10] = single dose 50 mg/kg, brain versus plasma, read-out: enrichment in brain tissue
[11] = read-out: brain to plasma ratio

## C=C1c2ccccc2NC(=O)N1Cc1ccc(S(=O)(=O)N2CCCCC2)cc1 [Compound 2, 4-Methylene-3-(4-(piperidin-1-ylsulfonyl)benzyl)-3,4-dihydroquinazolin-2(1H)-one]
[1]
  BBB penetration in vivo: penetrates the BBB
[1]; listed as compound 2
  BBB penetration in vivo: confirmed the in silico prediction of BBB penetration
[2]
  inhibition of self-renewal: inhibits self-renewal
[2]; listed as compound 2
  inhibition of self-renewal: confirming activity

## O=C(NCc1ccc(S(=O)(=O)N2CCCCC2)cc1)n1ccc2cc(Cl)ccc21 [MHD003, 5-chloro-N-(4-(piperidin-1-ylsulfonyl)benzyl)-1H-indole-1-carboxamide]
HK-374 glioma stem cells; in combination with 4 Gy, controls DMSO, p<0.0001
  self renewal of glioma stem cells, % of irradiated controls: 6%
HK-374 glioma stem cells; unirradiated cells, one-way ANOVA
  self-renewal of HK-374 glioma stem cells in the absence of radiation (reduced to): 14%

## O=C(NCc1ccc(S(=O)(=O)N2CCCCC2)cc1)n1ccc2ccccc21 [MXC017, N-(4-(Piperidin-1-ylsulfonyl)benzyl)-1H-indole-1-carboxamide]
HK374 cells; MXC-017 alone, 2 weeks treatment, extreme limiting dilution assay
  number of GSCs: significantly reduced
HK374 cells; [9]
  frequency of glioma stem cells: significantly reduced
  number of sphere forming cells: reduced the number of sphere forming cells
HK374 cells; combination of radiation (single dose 10 Gy) and MXC-017
  number of GSCs: eliminated all GSCs
Normal tissue cell lines
  toxicity in normal tissue cell lines: no relevant toxicity
[3]; 5 daily injections/week for 2 weeks
  tolerability: well tolerated; also recorded: well tolerated in mice with no acute clinical toxicity
[3]; [9]
  body weight during observation time of 2 weeks: allowed animals to gain weight
[4]
  histological signs of toxicity in major organs: did not reveal any toxicity
[5]; listed as MCX017
  phenotype conversion of non-stem glioma cells into glioblastoma-initiating cells: prevent spontaneous and radiation-induced phenotype conversion; also recorded: prevented radiation-induced phenotype conversion
PDOX models of GBM; MXC-017 alone, five daily doses/week
  median survival: small but significant increase
PDOX models of GBM; single dose 10 Gy plus MXC-017 50 mg/kg, 5 days on, 2 days off, prolonged from 29 days, p<0.0001 log-rank
  median survival: 60 days
[6]
  effect on oligodendrocytes (normal tissue) in the brain: not effecting; also recorded: had no effect
[7]
  Nestin-positive glioma stem cells in the tumors: eliminated
p-AKT
  p-AKT level (FLT3 target): down-regulation
p-ERK
  p-ERK level (FLT3 target): down-regulation
Cytosolic beta-catenin
  cytosolic beta-catenin level (TNIK target): stabilization
[8]
  peak brain concentrations: in the micromolar range
[8]; [10]
  Kp: 4.55
[8]; [11]
  Kp: 4.55

## CCN(CC)S(=O)(=O)c1ccc(CNCc2ccccc2N)cc1 [MXC021, 4-(((2-Aminobenzyl)amino)methyl)-N,N-diethylbenzenesulfonamide]
Normal tissue cell lines
  toxicity in normal tissue cell lines: no relevant toxicity

## O=C(NCc1ccc(S(=O)(=O)N2CCCCCC2)cc1)n1ccc2ccccc21 [MXC079, N-(4-(Azepan-1-ylsulfonyl)benzyl)-1H-indole-1-carboxamide]
Normal tissue cell lines
  toxicity in normal tissue cell lines: no relevant toxicity
[5]; listed as MCX079
  phenotype conversion of non-stem glioma cells into glioblastoma-initiating cells: prevent spontaneous and radiation-induced phenotype conversion; also recorded: prevented radiation-induced phenotype conversion
p-AKT
  p-AKT level (FLT3 target): down-regulation
p-ERK
  p-ERK level (FLT3 target): down-regulation
Cytosolic beta-catenin
  cytosolic beta-catenin level (TNIK target): stabilization
[8]
  peak brain concentrations: in the micromolar range
[8]; [10]
  Kp: 2.63
[8]; [11]
  Kp: 2.6
